# Reference: patent publication US9986723B2, “Screen and use of therapeutics for pancreatic ductal adenocarcinoma” (The Board of Regents of the University of Texas System, priority 2014, dated 2018)
# Key:
# Capan-1 tumors = assay: Low dose warfarin in drinking water, orthotopic human tumor xenograft; format: in vivo, mouse
# Description: (§1) (FIG. 23A) Primary tumor burden after therapy with warfarin. Therapy was initiated when implanted tumors were visible by ultrasound (˜10 mm^3) and consisted of control (normal drinking water) or warfarin, administered in the drinking water at 0.5 mg/L (immunocompetent mice: Pan02 (n=4, control; 3, warfarin), KIC (n=10, control; 8, warfarin)) or 1 mg/L (Panc-1 (n=10, control; 8, warfarin), AsPC-1 (n=8, control; 6, warfarin), Capan-1 (n=10, control; 7, warfarin)) and continued for 2-4 weeks until control mice were moribund. Therapy in KIC mice was initiated at 3 weeks of age and continued for 4 weeks. (FIG. 23B) Metastases were determined grossly upon sacrifice and confirmed by histological evaluation of the liver. […] Incidence of metastasis is also indicated. […] Tumor volume determined by serial ultrasound. […] Therapy with mAb 10C9 (250 μg 2×/week) was initiated when tumors were established as above and persisted for 4 weeks. […] Error bars indicate s.e.m.
# (§2) Animal studies. All animals were housed in a pathogen-free facility with 24-hour access to food and water. Experiments were approved by, and conducted in accordance with, an IACUC approved protocol at UT Southwestern. LSL-Kras^G12D; Cdkn2a^lox/lox; p48^Cre (KIC) mice were generated as previously described (Ostapoff et al., 2014). Four- to 6-week-old female NOD/SCID and C57/B16 mice were obtained from an on campus supplier. A total of 1×10^6 AsPc-1, Panc-1, Mia Paca2, Capan-1, C5LM2, Mia shLuc and Mia shAxl or 5×10^5 Pan02 cells, were injected orthotopically as described (Ostapoff et al., 2014). Mice with established tumors, as determined by sonography were randomized to receive normal drinking water or water containing 1 mg/L (˜3.0 μM) warfarin for experiments in immunocompromised mice and 0.5 mg/L (˜1.5 μM) in experiments in immunocompetent animals with or without gemcitabine 25 mg/kg twice weekly depending on experimental design.
# AsPC1 tumors = assay: as above; format: in vivo, mouse; settings: warfarin 1 mg/L drinking water
# Description: as §1, §2
# Axl = target: T1, Axl (Homo sapiens, UniProt P30530); assay: Phosphorylated Axl in Panc-1 cells (western blot, immunofluorescence); format: cell-based; settings: overnight, 1% serum, 2 μM
# T1 construct: Lysates were probed for total Axl (tAxl) and phosphorylated Axl (pAxl); endogenous in cells; host or cells: Panc-1
# Description: (FIG. 24A) HEK293 cells engineered to stably express recombinant Gas6 were grown in the presence of Vitamin K or Vitamin K+warfarin. Gas6 levels and γ-carboxylation were assayed by immunoblotting conditioned media. Conditioned media from untransfected HEK293 cells was used as a negative control. (FIG. 24B) Panc1 cells were grown overnight in media with 1% serum with no additions (NT), warfarin (2 μM) or BGB324 (2 μM). Lysates were probed for total Axl (tAxl) and phosphorylated Axl (pAxl). (FIG. 24C) Panc1 cells were grown in the presence of control media, Vitamin K, warfarin or warfarin+Vitamin K. The level of phosphorylated Axl (pAXL, red) was determined by immunofluorescence. (FIG. 24D) Panc1 cells were grown overnight in media with 1% serum with no additions (control), warfarin (1 μM), Gas6 (1.3 nM) or Gas6+warfarin. Lysates were probed for phosphorylated Akt (pAkt) and actin. (FIG. 24E) Lysates from Panc1 tumors harvested from mice treated with control or warfarin were probed for expression of tAxl, pAxl, actin, pAKT, tAKT, and cleaved Parp. (FIG. 24F) The effect of warfarin on cell migration was assessed by a ‘scratch’ assay. Monolayers of the indicted cells were wounded with a pipet tip. The cells were incubated in media containing 2% serum+/−warfarin (2 μM) or media containing 2% serum+Gas6 (1.3 nM)+/−warfarin.
# ASPC = assay: MTS cell growth assay, gemcitabine +/- warfarin; format: cell-based, human; settings: warfarin 2 μM
# Description: (§3) Cytotoxicity and augmentation of chemotherapy response was measured by MTS assays conducted in 96-well plates; cells were plated on day 0 and drug was added on day 1 in 4-fold dilutions. Maximum concentration of 2,000 nmol/L for gemcitabine was used with or without the addition of a constant concentration of 2 μM warfarin or 1.1 μM 10C9. Relative cell number was determined by adding MTS (Promega; final concentration […]), incubating for 1 to 3 hours at 37° C., and reading absorbance. Drug sensitivity curves and IC50s were calculated using in-house software.
# Panc1 = assay: MTS cell growth assay, gemcitabine +/- warfarin; format: cell-based, human; settings: warfarin 2 μM
# Description: as §3
# T1 sequence (P30530 26-894): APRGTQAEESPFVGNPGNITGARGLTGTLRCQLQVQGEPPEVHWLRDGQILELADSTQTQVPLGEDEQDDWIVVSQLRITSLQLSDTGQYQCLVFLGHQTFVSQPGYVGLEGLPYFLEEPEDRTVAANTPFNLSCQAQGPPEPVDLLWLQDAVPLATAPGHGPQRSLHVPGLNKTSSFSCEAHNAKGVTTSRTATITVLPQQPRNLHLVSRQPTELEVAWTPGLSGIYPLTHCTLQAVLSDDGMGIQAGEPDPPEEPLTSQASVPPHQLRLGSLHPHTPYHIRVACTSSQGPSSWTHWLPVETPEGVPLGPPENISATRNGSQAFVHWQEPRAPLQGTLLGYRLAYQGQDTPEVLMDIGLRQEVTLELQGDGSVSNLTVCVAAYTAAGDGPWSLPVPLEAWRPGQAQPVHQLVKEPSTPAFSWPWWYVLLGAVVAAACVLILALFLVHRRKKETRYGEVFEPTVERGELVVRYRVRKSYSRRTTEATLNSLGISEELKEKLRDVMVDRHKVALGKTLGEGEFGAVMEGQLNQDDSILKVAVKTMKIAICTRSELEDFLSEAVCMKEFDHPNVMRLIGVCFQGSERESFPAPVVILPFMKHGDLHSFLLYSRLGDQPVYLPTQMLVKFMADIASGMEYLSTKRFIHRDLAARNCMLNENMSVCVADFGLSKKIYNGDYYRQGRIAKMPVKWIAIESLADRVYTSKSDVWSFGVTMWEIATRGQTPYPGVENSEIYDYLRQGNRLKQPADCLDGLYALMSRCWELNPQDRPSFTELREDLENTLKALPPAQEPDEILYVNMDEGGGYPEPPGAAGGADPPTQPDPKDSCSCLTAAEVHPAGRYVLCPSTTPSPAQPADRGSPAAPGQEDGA
smiles,measurement,setting,value
CC(=O)CC(c1ccccc1)c1c(O)c2ccccc2oc1=O (racemic) [Warfarin],response of tumors to warfarin,Capan-1 tumors; no detectable Axl expression,nonresponsive
same,primary tumor growth,Capan-1 tumors; warfarin 1 mg/L drinking water,little effect
same,primary tumor growth,AsPC1 tumors,little effect
same,phosphorylation of Axl (pAxl),Axl,inhibited basal pAxl levels
same,Fold Reduction of gemcitabine IC50 in presence of warfarin,ASPC,8.4 fold
same,Fold Reduction of gemcitabine IC50 in presence of warfarin,Panc1,211 fold
